Results as given in patent US20190134005A1 (BioMarin Pharmaceutical Inc., priority 2016, published 2019).
Where two headings read alike, the source gives them in different places.

Molecular target: T1, human CGT (Homo sapiens, UniProt Q16880)
T1 sequence (Q16880 21-541): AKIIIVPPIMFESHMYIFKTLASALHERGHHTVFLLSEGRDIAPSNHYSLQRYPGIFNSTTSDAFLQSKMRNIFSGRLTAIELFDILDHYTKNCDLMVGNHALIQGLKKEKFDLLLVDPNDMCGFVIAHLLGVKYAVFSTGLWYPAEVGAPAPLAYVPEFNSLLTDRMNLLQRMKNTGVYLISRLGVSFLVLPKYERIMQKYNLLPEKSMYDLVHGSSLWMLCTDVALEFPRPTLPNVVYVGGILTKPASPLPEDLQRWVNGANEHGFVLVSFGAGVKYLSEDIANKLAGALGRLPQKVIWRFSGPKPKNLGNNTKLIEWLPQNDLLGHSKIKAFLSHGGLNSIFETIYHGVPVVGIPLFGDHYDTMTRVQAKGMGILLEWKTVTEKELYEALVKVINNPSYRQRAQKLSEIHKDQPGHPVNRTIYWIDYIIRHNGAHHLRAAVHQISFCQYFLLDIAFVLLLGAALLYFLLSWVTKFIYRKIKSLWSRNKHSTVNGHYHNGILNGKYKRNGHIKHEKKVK
Experiment: Assay 1: CGT Enzymatic Assay (RapidFire/MS/MS, 0.01% Tween 80)
Format: biochemical
Conditions: Table 1, Compounds of Formula (I) and Formula (II), CGT enzymatic assay, read-out: IC50

[1] = C6-NBD-dihydro-galactosylceramide readout

| Structure (SMILES) | IC50 [nM] | IC50 [1] [nM] |
| --- | --- | --- |
| O=c1n(-c2ccc(Cl)cc2)c(-c2cccc(OC(F)(F)F)c2)c(C2CC2)n1-c1ccc(Cl)cc1 [Compound 65, 1,3-bis(4-chlorophenyl)-4-cyclopropyl-5-(3-(trifluoromethoxy)phenyl)-1,3-dihydro-2H-imidazol-2-one] | < 1000 | – |
| CCC[C@H]1N(c2ccc(Cl)cc2)C(=O)N(c2ccc(Cl)cc2)C1(O)c1cccc(CC)c1 (stereo partly drawn) [Compound 89-2, (5R)-1,3-bis(4-chlorophenyl)-4-(3-ethylphenyl)-4-hydroxy-5-propylimidazolidin-2-one] | < 1000 | – |
| CC[C@@H]1N(c2ccc(Cl)cc2)C(=O)N(c2ccc(Cl)cc2)C1(O)c1cccc(Cl)c1 (stereo partly drawn) [Compound 81-1, (5S)-4-(3-chlorophenyl)-1,3-bis(4-chlorophenyl)-5-ethyl-4-hydroxyimidazolidin-2-one] | < 1000 | – |
| O=C1N(c2ccc(Br)cc2)CC(O)(c2cccnc2)N1c1ccc(Br)cc1 (stereo not shown) [Compound 52, 1,3-bis(4-bromophenyl)-4-hydroxy-4-(pyridin-3-yl)imidazolidin-2-one] | 10000 to 50000 | – |
| CCC[C@@H]1N(c2ccc(Br)cc2)C(=O)N(c2ccc(Br)cc2)C1(O)c1cccc(C(F)(F)F)c1 (stereo partly drawn) [Compound 100-1, (5S)-1,3-bis(4-bromophenyl)-4-hydroxy-5-propyl-4-(3-(trifluoromethyl)phenyl)imidazolidin-2-one] | < 1000 | – |
| CCC1N(c2ccc(Br)cc2)C(=O)N(c2ccc(Br)cc2)C1(O)c1cccc(OC(F)(F)F)c1 (stereo in doubt) [Compound 83-1, (5S)-1,3-bis(4-bromophenyl)-5-ethyl-4-hydroxy-4-(3-(trifluoromethoxy)phenyl)imidazolidin-2-one] | < 1000 | – |
| C[C@@H]1N(c2ccc(Cl)cc2)C(=O)N(c2ccc(Cl)cc2)C1(O)c1cccc(C#N)c1 (single isomer, unassigned) [Compound 99-1] | < 1000 | – |
| C[C@H]1N(c2ccc(Cl)cc2)C(=O)N(c2ccc(Cl)cc2)C1(O)c1cccc(Cl)c1 (single isomer, unassigned) [Compound 62-2] | < 1000 | – |
| CCC[C@@H]1N(c2ccc(Cl)cc2)C(=O)N(c2ccc(Cl)cc2)C1(O)c1cccc(C)c1 (stereo partly drawn) [Compound 90-1, (5S)-1,3-bis(4-chlorophenyl)-4-hydroxy-5-propyl-4-(m-tolyl)imidazolidin-2-one] | < 1000 | – |
| CCCCOc1ccc(C2(O)C(=O)N(c3ccc(Br)cc3)C(=O)N2c2ccc(Br)cc2)cc1 (stereo not shown) [Example 182, 1,3-bis(4-bromophenyl)-5-(4-butoxyphenyl)-5-hydroxyimidazolidine-2,4-dione] | > 50000 | – |
| C[C@@H]1N(c2ccc(Br)cc2)C(=O)N(c2ccc(Br)cc2)C1(O)c1cccc(C(F)(F)F)c1 (stereo partly drawn) [Compound 74-1, (5S)-1,3-bis(4-bromophenyl)-4-hydroxy-5-methyl-4-(3-(trifluoromethyl)phenyl)imidazolidin-2-one] | < 1000 | – |
| O=C1N(c2ccc(Cl)cc2)CC(O)(c2cccc(C3CC3)c2)N1c1ccc(Cl)cc1 (stereo not shown) [Compound 78, 1,3-bis(4-chlorophenyl)-4-(3-cyclopropylphenyl)-4-hydroxyimidazolidin-2-one] | 1000 to 10000 | – |
| CCc1ccc(N2C(=O)N(c3ccc(CC)cc3)C(O)(c3cccc(C#N)c3)[C@H]2C)cc1 (single isomer, unassigned) [Compound 104-2] | < 1000 | – |
| CCCC1N(c2ccc(Br)cc2)C(=O)N(c2ccc(Br)cc2)C1(O)c1cccc(Cl)c1 (stereo not shown) [Compound 119, 1,3-bis(4-bromophenyl)-4-(3-chlorophenyl)-4-hydroxy-5-propylimidazolidin-2-one] | < 1000 | – |
| CCCC[C@H]1N(c2ccc(Cl)cc2)C(=O)N(c2ccc(Cl)cc2)C1(O)c1cccc(C#N)c1 (stereo partly drawn) [Compound 116-2, 3-((5R)-5-butyl-1,3-bis(4-chlorophenyl)-4-hydroxy-2-oxoimidazolidin-4-yl)benzonitrile] | < 1000 | – |

More lines, now with the values ahead:

| IC50 [nM] | IC50 [1] [nM] | Structure (SMILES) |
| --- | --- | --- |
| > 50000 | – | CC1(O)CN(c2ccc(Br)cc2)C(=O)N1c1ccc(Br)cc1 (stereo not shown) [Example 2, 1,3-bis(4-bromophenyl)-4-hydroxy-4-methylimidazolidin-2-one] |
| 10000 to 50000 | – | CCC1(O)CN(c2ccc(Br)cc2)C(=O)N1c1ccc(Br)cc1 (stereo not shown) [Example 4, 1,3-bis(4-bromophenyl)-4-ethyl-4-hydroxyimidazolidin-2-one] |
| < 1000 | – | C[C@@]1(c2ccccc2)C(O)N(c2ccc(Cl)cc2)C(=O)N1c1ccc(Cl)cc1 (single isomer, unassigned) [Example 223-2] |
| – | < 1000 | Cc1ccc(N2C(=O)N(c3ccc(C#N)cc3)C(C)(C)C2(O)c2cccc(OC(F)(F)F)c2)cc1 (stereo not shown) [Example 312, 4-(4-hydroxy-5,5-dimethyl-2-oxo-3-(p-tolyl)-4-(3-(trifluoromethoxy)phenyl)imidazolidin-1-yl)benzonitrile] |
| 1000 to 10000 | – | N#Cc1cccc(C2(O)[C@H](CC3CC3)N(c3ccc(Cl)cc3)C(=O)N2c2ccc(Cl)cc2)c1 (single isomer, unassigned) [Compound 132-1] |
| < 1000 | – | C[C@]1(C(F)(F)F)N(c2ccc(Cl)cc2)C(=O)N(c2ccc(Cl)cc2)C1(O)c1cccc(C#N)c1 (single isomer, unassigned) [Example 177-1] |
| – | < 1000 | Cc1ccc(N2C(=O)N(c3ccc(Cl)cc3)C(O)(c3cccc(OC(F)(F)F)c3)C23CCC3)cc1 (stereo not shown) [Example 315, 7-(4-chlorophenyl)-8-hydroxy-5-(p-tolyl)-8-(3-(trifluoromethoxy)phenyl)-5,7-diazaspiro[3.4]octan-6-one] |
| – | < 1000 | CCCC1(C)N(c2ccc(Cl)cc2)C(=O)N(c2ccc(Cl)cc2)C1(O)c1cccc(C#N)c1 (stereo not shown) [Compound 291, 3-(1,3-bis(4-chlorophenyl)-4-hydroxy-5-methyl-2-oxo-5-propylimidazolidin-4-yl)benzonitrile] |
| > 50000 | – | COc1ccccc1C1(O)C(=O)N(c2ccc(Br)cc2)C(=O)N1c1ccc(Br)cc1 (stereo not shown) [Example 206, 1,3-bis(4-bromophenyl)-5-hydroxy-5-(2-methoxyphenyl)imidazolidine-2,4-dione] |
| < 1000 | – | Cc1cc(C)cc(C2(O)C(C)N(c3ccc(Br)cc3)C(=O)N2c2ccc(Br)cc2)c1 (stereo not shown) [Example 42] |
| > 50000 | – | O=C1N(c2ccc(Br)cc2)C(=O)C(O)(c2ccc(-c3ccc(F)cc3)cc2)N1c1ccc(Br)cc1 (stereo not shown) [Example 178, 1,3-bis(4-bromophenyl)-5-(4′-fluoro-[1,1′-biphenyl]-4-yl)-5-hydroxyimidazolidine-2,4-dione] |
| < 1000 | – | CCc1c(-c2cccc(OC(F)(F)F)c2)n(-c2ccc(Cl)cc2)c(=O)n1-c1ccc(Cl)cc1 [Compound 247, 1,3-bis(4-chlorophenyl)-4-ethyl-5-(3-(trifluoromethoxy)phenyl)-1,3-dihydro-2H-imidazol-2-one] |
| > 50000 | – | O=C1N(c2ccc(F)cc2)C(=O)C(O)(c2ccccc2)N1c1ccc(F)cc1 (stereo not shown) [Example 161, 1,3-bis(4-fluorophenyl)-5-hydroxy-5-phenylimidazolidine-2,4-dione] |
| 10000 to 50000 | – | CCCc1c(C(=O)c2ccccc2)n(-c2ccc(Cl)cc2)c(=O)n1-c1ccc(Cl)cc1 [Example 27, 4-benzoyl-1,3-bis(4-chlorophenyl)-5-propyl-1,3-dihydro-2H-imidazol-2-one] |
| 1000 to 10000 | – | C[C@]1(c2ccccc2)N(c2ccc(Cl)cc2)C(=O)N(c2ccc(Cl)cc2)[C@@]1(O)c1ccccc1 [Compound 121-4, (4R,5R)-1,3-bis(4-chlorophenyl)-4-hydroxy-5-methyl-4,5-diphenylimidazolidin-2-one] |
| 1000 to 10000 | – | C[C@H]1N(c2ccc(Br)cc2)C(=O)N(c2ccc(Br)cc2)C1(O)c1cccs1 (stereo partly shown) [Example 49-2] |
